Assay results from patent US20060258635A1, “Use of a porphyrin compound for the treatment of skin fungi” (PHOTOBIOCHEM N.V., priority 2003, published 2006).

What was measured:
[1] = system: Trichophyton rubrum; assay: Photodynamic treatment of Trichophyton rubrum suspension culture (white light illumination, growth on MEA quantified by counting inoculates); type: cell-based; conditions: for survival of the fungus after photodynamic treatment: after 7 days, over the whole concentration range used, control without photosensitizer is 100%; for photodynamic efficacy below a concentration of 3 μg/ml: below 3 μg/ml; for photodynamic efficacy below a concentration of 3 μg/ml / photodynamic efficacy above a concentration of 3 μg/ml: FIG. 1A; for result of photodynamic treatment of Trichophyton rubrum in suspension culture: 30 min incubation at 28° C., white light illumination, growth monitored during one week; for photodynamic efficacy above a concentration of 3 μg/ml: above 3 μg/ml; for concentration at which a true fungicidal effect was detected: after photodynamic treatment, FIG. 1B
Procedure: Materials The fungus Trichophyton rubrum was purchased from the Centraalbureau voor Schimmelcultures (CBS), Baarn, The Netherlands. Cultures were grown on Malt Extract Agar (MEA, Oxoid, Hampshire England). Suspension cultures were made in Dulbecco's Modified Eagle Medium (DMEM, GibcoBRL, UK) with 2.5 % Fetal Calf Serum (FCS, GibcoBRL, UK).
Solid cultures were maintained at 28° C., the suspension cultures at room temperature. Hematoporphyrin (HP) was purchased from Porphyrin Products Inc. (Utah, USA), 5,10,15-tris(4-methylpyridinium)-20-phenyl-[21H, 23H]-porphyrine trichloride (Sylsens B), deuteroporphyrin (DP) and deuteroporphyrin monomethylester (DP mme) were synthesized and kindly provided by the Department of Bio-Organic Photochemistry, Leiden University, the Netherlands (purity, checked with NMR was more than 99.5%). All the phthalocyanines were purchased from Porphyrin Products. Inc. (Utah, USA)) and Photofrin was purchased from Lederle Parenterals Inc. (Carolina, USA). Polyethylene-glycol was obtained from Genfarma B.V. (Maarssen, the Netherlands), while all other chemicals were purchased from J.T.Baker (Deventer, The Netherlands).
The following solvents were used: • 50 mM sodium phosphate buffer pH 7.4 for Sylsens B, HP, Photofrin, ZnPc and AlPcS4; • polyethyleneglycol:ethanol:water (3:2:5) for DP and DP mme; and • dimethylformamide (DMF) for PcS4.
Stock solutions of the photosensitizers of 2.5 mg/ml solvent were stored at […] for no longer than one week.
Photodynamic treatment Illuminations were performed with a lamp from “MASSIVE” (no.74900/21), 1× max. 500W-230 V-R7s, IP 44. To avoid heating of the samples to be illuminated, the white light produced by the lamp first passes a 2 cm thick water layer before reaching the samples. The light intensity was measured with a IL1400A photometer equipped with a SEL033/F/U detector (International Light, Newburyport, Mass., USA). Before illumination, the fungal culture suspensions were incubated with the photosensitizer in test tubes for 30 minutes at a temperature of 28° C. After incubation, the suspension cultures were illuminated in the presence of the sensitizer in 3 cm diameter culture dishes (Greiner, Alphen aan den Rijn, The Netherlands). After illumination, the contents of the culture dishes were transferred to dishes of 9 cm diameter containing MEA, placed in the incubator at 28° C. and growth was monitored during one week and quantified by counting the number of inoculates present.

[2] = system: Trichophyton rubrum; type: cell-based

Compound | survival of the fungus after photodynamic treatment [1] [%] | dark toxicity [2] | photodynamic efficacy below a concentration of 3 μg/ml [1] | concentration at which dark toxicity is displayed [2] [µg/mL] | result of photodynamic treatment of Trichophyton rubrum in suspension culture [1] | photodynamic efficacy above a concentration of 3 μg/ml [1] | concentration at which a true fungicidal effect was detected [1] [µg/mL] | effectiveness among the porphyrin derivatives ([1]; comparison of porphyrin derivatives)
[Zn+2].c1ccc2c(c1)-c1nc-2nc2[n-]c(nc3nc([n-]c4nc(n1)-c1ccccc1-4)-c1ccccc1-3)c1ccccc21 [ZnPc] | 100 | – | – | – | – | – | – | –
CC1=C(CCC(=O)O)c2cc3nc(cc4[nH]c(cc4C)cc4[nH]c(cc1n2)cc4C)C(C)=C3CCC(=O)O [DP, deuteroporphyrin] | – | expresses a dark toxicity at higher concentrations | poorest efficacy | – | – | – | – | –
Photofrin | 100 | – | – | ≥ 90 | merely a delay of growth in the first days | – | – | –
CC1=C(CCC(=O)O)c2cc3[nH]c(cc4nc(cc5[nH]c(cc1n2)c(C)c5C(C)O)C(C)=C4C(C)O)c(C)c3CCC(=O)O (stereo not drawn) [HP, Hematoporphyrin] | – | no dark toxicity | – | – | – | – | – | –
deuteroporphyrin monomethylester [DP mme] | – | expresses a dark toxicity at higher concentrations | the same as detected with HP | – | completely killing the fungus in almost all experiments | analogous to the effect caused by the other porphyrins | 3 | –
C[n+]1ccc(-c2c3nc(c(-c4cc[n+](C)cc4)c4ccc([nH]4)c(-c4cc[n+](C)cc4)c4nc(c(-c5ccccc5)c5ccc2[nH]5)C=C4)C=C3)cc1.[Cl-].[Cl-].[Cl-] [Sylsens B, 5,10,15-tris(4-methylpyridinium)-20-phenyl-[21H, 23H]-porphyrine trichloride] | – | no dark toxicity | better photodynamic efficacy | – | completely killing the fungus in almost all experiments | analogous to the effect caused by the other porphyrins | 3 | by far the most effective
